Measured values published in PubChem BioAssay AID1259407 (Chemical Carcinogenesis Research Information System (CCRIS), 2018).
Calls of active or inactive are those of the source. No rule for the calls is given here.

Test system: CCRIS mutagenicity, Ames/micronucleus/aberration tests
Experiment: CCRIS mutagenicity studies
[1] = Test System: AMES SALMONELLA TYPHIMURIUM, Strain/Indicator: TA98, Metabolic Activation: NONE, Method: STANDARD PLATE
[2] = Test System: AMES SALMONELLA TYPHIMURIUM, Strain/Indicator: TA98, Metabolic Activation: RAT, LIVER, S-9, AROCLOR 1254, Method: STANDARD PLATE
[3] = Test System: AMES SALMONELLA TYPHIMURIUM, Strain/Indicator: TA1535, Metabolic Activation: NONE, Method: STANDARD PLATE
[4] = Test System: AMES SALMONELLA TYPHIMURIUM, Strain/Indicator: TA100, Metabolic Activation: NONE, Method: PREINCUBATION
[5] = Test System: AMES SALMONELLA TYPHIMURIUM, Strain/Indicator: TA100, Metabolic Activation: NONE, Method: STANDARD PLATE
[6] = Test System: AMES SALMONELLA TYPHIMURIUM, Strain/Indicator: TA98, Metabolic Activation: NONE, Method: PREINCUBATION
[7] = Test System: AMES SALMONELLA TYPHIMURIUM, Strain/Indicator: TA1535, Metabolic Activation: NONE, Method: PREINCUBATION

For `O=C1c2ccccc2C(=O)c2c1cc(O)c(O)c2O`, the mutagenic call [1] was “active; positive”, the mutagenic call [2] was “active; positive” and the mutagenic call [3] was “inactive; negative”. The mutagenic call (Test System: AMES SALMONELLA TYPHIMURIUM, Strain/Indicator: TA1535, Metabolic Activation: RAT, LIVER, S-9, AROCLOR 1254, Method: STANDARD PLATE) was “inactive; negative”, the mutagenic call (Test System: AMES SALMONELLA TYPHIMURIUM, Strain/Indicator: TA1537, Metabolic Activation: NONE, Method: STANDARD PLATE) was “active; positive” and the mutagenic call (Test System: AMES SALMONELLA TYPHIMURIUM, Strain/Indicator: TA1537, Metabolic Activation: RAT, LIVER, S-9, AROCLOR 1254, Method: STANDARD PLATE) was “active; positive”. For the same compound, the mutagenic call (Test System: AMES SALMONELLA TYPHIMURIUM, Strain/Indicator: TA1538, Metabolic Activation: NONE, Method: STANDARD PLATE) was “active; positive”, the mutagenic call (Test System: AMES SALMONELLA TYPHIMURIUM, Strain/Indicator: TA1538, Metabolic Activation: RAT, LIVER, S-9, AROCLOR 1254, Method: STANDARD PLATE) was “active; positive” and the mutagenic call (Test System: AMES SALMONELLA TYPHIMURIUM, Strain/Indicator: TA1978, Metabolic Activation: NONE, Method: STANDARD PLATE) was “inactive; negative”. The mutagenic call (Test System: AMES SALMONELLA TYPHIMURIUM, Strain/Indicator: TA1978, Metabolic Activation: RAT, LIVER, S-9, AROCLOR 1254, Method: STANDARD PLATE) was “inactive; negative”.
`NCCc1c[nH]c2ccccc12` was tested, and the mutagenic call (Test System: AMES SALMONELLA TYPHIMURIUM, Strain/Indicator: TA97A, Metabolic Activation: NONE, Method: STANDARD PLATE) was “inactive; negative”, the mutagenic call (Test System: AMES SALMONELLA TYPHIMURIUM, Strain/Indicator: TA97A, Metabolic Activation: RAT LIVER S-9, PHENOBARBITOL/BETA-NAPHTHOFLAVONE, Method: STANDARD PLATE) was “inactive; negative” and the mutagenic call [1] was “inactive; negative”. The mutagenic call (Test System: AMES SALMONELLA TYPHIMURIUM, Strain/Indicator: TA98, Metabolic Activation: RAT LIVER S-9, PHENOBARBITOL/BETA-NAPHTHOFLAVONE, Method: STANDARD PLATE) was “inactive; negative”, the mutagenic call [4] was “inactive; negative” and the mutagenic call [5] was “inactive; negative”. For the same compound, the mutagenic call (Test System: AMES SALMONELLA TYPHIMURIUM, Strain/Indicator: TA100, Metabolic Activation: RAT LIVER S-9, PHENOBARBITOL/BETA-NAPHTHOFLAVONE, Method: STANDARD PLATE) was “inactive; negative”, the mutagenic call [3] was “inactive; negative” and the mutagenic call (Test System: AMES SALMONELLA TYPHIMURIUM, Strain/Indicator: TA1535, Metabolic Activation: RAT LIVER S-9, PHENOBARBITOL/BETA-NAPHTHOFLAVONE, Method: STANDARD PLATE) was “inactive; negative”. For the same compound, the mutagenic call (Test System: E.COLI, Strain/Indicator: WP2/UVRA, Metabolic Activation: NONE, Method: STANDARD PLATE) was “inactive; negative” and the mutagenic call (Test System: E.COLI, Strain/Indicator: WP2/UVRA, Metabolic Activation: RAT LIVER S-9, PHENOBARBITOL/BETA-NAPHTHOFLAVONE, Method: STANDARD PLATE) was “inactive; negative”.
`COc1cc2c(c3oc(=O)c4c(c13)CCC4=O)[C@@]1(O)[C@@H](O2)O[C@@H]2O[C@@H]21` was tested, and the mutagenic call (Test System: AMES SALMONELLA TYPHIMURIUM, Strain/Indicator: TA100, Metabolic Activation: NONE, Method: MICROSUSPENSION) was “active; positive” and the mutagenic call (Test System: AMES SALMONELLA TYPHIMURIUM, Strain/Indicator: TA100, Metabolic Activation: RAT, LIVER, S-9, AROCLOR 1254, Method: MICROSUSPENSION) was “active; positive”.
With `Cc1cc(O)c(C(C)(C)C)cc1Sc1cc(C(C)(C)C)c(O)cc1C` the mutagenic call (Test System: AMES SALMONELLA TYPHIMURIUM, Strain/Indicator: TA98, Metabolic Activation: HAMSTER, LIVER, S-9, AROCLOR 1254 (10%), Method: PREINCUBATION) was “inactive; negative”, the mutagenic call [6] was “inactive; negative” and the mutagenic call [1] was “inactive; negative”. The mutagenic call (Test System: AMES SALMONELLA TYPHIMURIUM, Strain/Indicator: TA98, Metabolic Activation: RAT, LIVER, S-9, AROCLOR 1254 (10%), Method: PREINCUBATION) was “inactive; negative”, the mutagenic call (Test System: AMES SALMONELLA TYPHIMURIUM, Strain/Indicator: TA98, Metabolic Activation: S-9, Method: STANDARD PLATE) was “inactive; negative” and the mutagenic call (Test System: AMES SALMONELLA TYPHIMURIUM, Strain/Indicator: TA100, Metabolic Activation: HAMSTER, LIVER, S-9, AROCLOR 1254 (10%), Method: PREINCUBATION) was “inactive; negative”. For the same compound, the mutagenic call [4] was “inactive; negative”, the mutagenic call [5] was “inactive; negative” and the mutagenic call (Test System: AMES SALMONELLA TYPHIMURIUM, Strain/Indicator: TA100, Metabolic Activation: RAT, LIVER, S-9, AROCLOR 1254 (10%), Method: PREINCUBATION) was “inactive; negative”. For the same compound, the mutagenic call (Test System: AMES SALMONELLA TYPHIMURIUM, Strain/Indicator: TA100, Metabolic Activation: S-9, Method: STANDARD PLATE) was “inactive; negative”, the mutagenic call (Test System: AMES SALMONELLA TYPHIMURIUM, Strain/Indicator: TA1535, Metabolic Activation: HAMSTER, LIVER, S-9, AROCLOR 1254 (10%), Method: PREINCUBATION) was “inactive; negative” and the mutagenic call [7] was “inactive; negative”. The mutagenic call (Test System: AMES SALMONELLA TYPHIMURIUM, Strain/Indicator: TA1535, Metabolic Activation: RAT, LIVER, S-9, AROCLOR 1254 (10%), Method: PREINCUBATION) was “inactive; negative”, the mutagenic call (Test System: AMES SALMONELLA TYPHIMURIUM, Strain/Indicator: TA1537, Metabolic Activation: HAMSTER, LIVER, S-9, AROCLOR 1254 (10%), Method: PREINCUBATION) was “inactive; negative” and the mutagenic call (Test System: AMES SALMONELLA TYPHIMURIUM, Strain/Indicator: TA1537, Metabolic Activation: NONE, Method: PREINCUBATION) was “inactive; negative”. For the same compound, the mutagenic call (Test System: AMES SALMONELLA TYPHIMURIUM, Strain/Indicator: TA1537, Metabolic Activation: RAT, LIVER, S-9, AROCLOR 1254 (10%), Method: PREINCUBATION) was “inactive; negative”.
For `COC(=O)C(Cl)CCC(Cl)CCCCCC(Cl)CCC(Cl)CCCCCl` (stereo not drawn), the mutagenic call (Test System: AMES SALMONELLA TYPHIMURIUM, Strain/Indicator: TA97, Metabolic Activation: HAMSTER, LIVER, S-9, AROCLOR 1254 (10 OR 30%), Method: PREINCUBATION) was “inactive; negative”, the mutagenic call (Test System: AMES SALMONELLA TYPHIMURIUM, Strain/Indicator: TA97, Metabolic Activation: NONE, Method: PREINCUBATION) was “inactive; negative” and the mutagenic call (Test System: AMES SALMONELLA TYPHIMURIUM, Strain/Indicator: TA97, Metabolic Activation: RAT, LIVER, S-9, AROCLOR 1254 (10 OR 30%), Method: PREINCUBATION) was “inactive; negative”. For the same compound, the mutagenic call (Test System: AMES SALMONELLA TYPHIMURIUM, Strain/Indicator: TA98, Metabolic Activation: HAMSTER, LIVER, S-9, AROCLOR 1254 (10 OR 30%), Method: PREINCUBATION) was “inactive; negative”, the mutagenic call [6] was “inactive; negative” and the mutagenic call (Test System: AMES SALMONELLA TYPHIMURIUM, Strain/Indicator: TA98, Metabolic Activation: RAT, LIVER, S-9, AROCLOR 1254 (10 OR 30%), Method: PREINCUBATION) was “inactive; negative”. The mutagenic call (Test System: AMES SALMONELLA TYPHIMURIUM, Strain/Indicator: TA100, Metabolic Activation: HAMSTER, LIVER, S-9, AROCLOR 1254 (10 OR 30%), Method: PREINCUBATION) was “inactive; negative”, the mutagenic call [4] was “inactive; negative” and the mutagenic call (Test System: AMES SALMONELLA TYPHIMURIUM, Strain/Indicator: TA100, Metabolic Activation: RAT, LIVER, S-9, AROCLOR 1254 (10 OR 30%), Method: PREINCUBATION) was “inactive; negative”. The mutagenic call (Test System: AMES SALMONELLA TYPHIMURIUM, Strain/Indicator: TA1535, Metabolic Activation: HAMSTER, LIVER, S-9, AROCLOR 1254 (10 OR 30%), Method: PREINCUBATION) was “inactive; negative”, the mutagenic call [7] was “inactive; negative” and the mutagenic call (Test System: AMES SALMONELLA TYPHIMURIUM, Strain/Indicator: TA1535, Metabolic Activation: RAT, LIVER, S-9, AROCLOR 1254 (10 OR 30%), Method: PREINCUBATION) was “inactive; negative”.
For `O=C(/C=C/c1ccc(F)cc1)c1ccccc1`, the mutagenic call [1] was “inactive; negative”, the mutagenic call [2] was “inactive; negative” and the mutagenic call [5] was “inactive; negative”. For the same compound, the mutagenic call (Test System: AMES SALMONELLA TYPHIMURIUM, Strain/Indicator: TA100, Metabolic Activation: RAT, LIVER, S-9, AROCLOR 1254, Method: STANDARD PLATE) was “inactive; negative”.
For `Cc1cn(/C=C/C=O)c(=O)[nH]c1=O`, the mutagenic call (Test System: AMES SALMONELLA TYPHIMURIUM, Strain/Indicator: HISD3052, Metabolic Activation: NONE, Method: STANDARD PLATE) was “active; positive”.
`COc1nsc2ccc(OCC3CO3)cc12` (stereo not drawn) was tested, and the mutagenic call [5] was “active; positive”.
With `Cc1nc2cc(C)c3c(nc(N)n3C)c2nc1C` the mutagenic call [2] was “active; positive”.
